Test results taken from US20230355618A1, “RAF INHIBITOR FOR TREATING LOW GRADE GLIOMA” (Day One Biopharmaceuticals, Inc., priority 2020, published 2023).

Legend:
[1] = Phase 1 pediatric dose-escalation trial: pharmacokinetic studies (exposure, AUC0-∞); assay type: in vivo, human; conditions: for AUC(0-inf): human, plasma, oral
Experimental: (§1) A 3+3 design is used. Based on the adult dose of 350 mg/m^2 by mouth every week (using a typical adult BSA of 1.7 m^2), the starting dose for the pediatric study was 80% of the adult RP2D, which was 280 mg/m^2 by mouth every week. Doses were escalated in an inter-patient stepwise fashion until dose-limiting toxicities (DLTs) were observed. The three different dose levels: 280 mg/m^2, 350 mg/m^2, and […].
(§2) Treatment began at 80% of the adult dose (i.e., 280 mg/m^2 by mouth once weekly based on the following calculation: • An adult dose of 600 mg once weekly and an average adult BSA (m^2) of 1.73 m^2=350 mg/m^2 • 80% of 350 mg/m^2=280 mg/m^2 starting dose
(§3) The dose escalation scheme is described in Table 1-A. The initial phase included 3 dose escalation levels to a maximum of 530 mg/m^2/dose weekly.
Pharmacokinetic studies were performed on all patients in the phase I component of the trial as venous access allowed. The initial phase 1 included 3 dose escalation levels to a maximum of 530 mg/m^2/dose weekly. PK studies were also conducted to evaluate phosphorylated ERK in the peripheral blood mononuclear cells.

[2] = system: pediatric low grade glioma (pLGG); assay: Phase 1 pediatric dose-escalation trial: tumor response by RANO criteria; assay type: in vivo, human; conditions: for Best RANO Response (T1-Gad): pLGG
Experimental: as §1, §2, §3
FIG. 2 illustrates Phase 1 trial data of these nine individual pediatric LGG (pLGG) patient responses to Compound A over time. […] The median time to response was 10.5 weeks. Two patients achieved a complete response that was maintained throughout the dosing period of up to two years.
Two of eight patients with a RAF fusion had prolonged stable disease.

[3] = pLGG patients with a RAF fusion, Phase 1

C[C@@H](NC(=O)c1ncnc(N)c1Cl)c1ncc(C(=O)Nc2cc(C(F)(F)F)c(Cl)cn2)s1 [Compound A, (R)-2-(1-(6-amino-5-chloropyrimidine-4-carboxamido)ethyl)-N-(5-chloro-4-(trifluoromethyl)pyridin-2-yl)thiazole-5-carboxamide]
Dose normalized AUC0-∞ ([1]; Subject-1 (PNOC014-01), predicted exposure at 530 mg/m^2 (predicted dose 456, 21 mg/kg), original dose cohort 280 mg/m^2): 1268 µg·h/L | Dose normalized AUC0-∞ ([1]; Subject-2 (PNOC014-02), predicted exposure at 530 mg/m^2 (predicted dose 530, 19 mg/kg), original dose cohort 280 mg/m^2): 682 µg·h/L | Dose normalized AUC0-∞ ([1]; Subject-3 (PNOC014-03), predicted exposure at 530 mg/m^2 (predicted dose 419, 23 mg/kg), original dose cohort 280 mg/m^2): 614 µg·h/L | Dose normalized AUC0-∞ ([1]; Subject-4 (PNOC014-04), predicted exposure at 530 mg/m^2 (predicted dose 906, 13 mg/kg), original dose cohort 350 mg/m^2): 705 µg·h/L | Dose normalized AUC0-∞ ([1]; Subject-5 (PNOC014-05), predicted exposure at 530 mg/m^2 (predicted dose 906, 14 mg/kg), original dose cohort 350 mg/m^2): 653 µg·h/L | Dose normalized AUC0-∞ ([1]; Subject-6 (PNOC014-06), predicted exposure at 530 mg/m^2 (predicted dose 848, 16 mg/kg), original dose cohort 350 mg/m^2): 640 µg·h/L | Dose normalized AUC0-∞ ([1]; Subject-7 (PNOC014-07), predicted exposure at 530 mg/m^2 (predicted dose 784, 15 mg/kg), original dose cohort 420 mg/m^2): 701 µg·h/L | Dose normalized AUC0-∞ ([1]; Subject-9 (PNOC014-09), predicted exposure at 530 mg/m^2 (predicted dose 376, 24 mg/kg), original dose cohort 420 mg/m^2): 1122 µg·h/L | AUC(0-inf) ([1]; 280 mg/m^2, Subject-1 (PNOC014-01), 21.9 kg, BSA 0.86 m^2, dose cohort 280 mg/m^2 by mouth once weekly, dose given 240 mg (11.0 mg/kg)): 670 ng·h/mL | AUC(0-inf) ([1]; 280 mg/m^2, Subject-2 (PNOC014-02), 28.2 kg, BSA 1.0 m^2, dose cohort 280 mg/m^2 by mouth once weekly, dose given 280 mg (9.9 mg/kg)): 361 ng·h/mL | AUC(0-inf) ([1]; 280 mg/m^2, Subject-3 (PNOC014-03), 18.1 kg, BSA 0.79 m^2, dose cohort 280 mg/m^2 by mouth once weekly, dose given 220 mg (12.2 mg/kg)): 324 ng·h/mL | AUC(0-inf) ([1]; 350 mg/m^2, Subject-4 (PNOC014-04), 69.6 kg, BSA 1.71 m^2, dose cohort 350 mg/m^2 by mouth once weekly, dose given 600 mg (8.6 mg/kg)): 466 ng·h/mL | AUC(0-inf) ([1]; 350 mg/m^2, Subject-5 (PNOC014-05), 66.5 kg, BSA 1.71 m^2, dose cohort 350 mg/m^2 by mouth once weekly, dose given 600 mg (9.0 mg/kg)): 431 ng·h/mL | AUC(0-inf) ([1]; 350 mg/m^2, Subject-6 (PNOC014-06), 53.6 kg, BSA 1.6 m^2, dose cohort 350 mg/m^2 by mouth once weekly, dose given 560 mg (10.4 mg/kg)): 423 ng·h/mL | AUC(0-inf) ([1]; 420 mg/m^2, Subject-7 (PNOC014-07), 53.7 kg, BSA 1.48 m^2, dose cohort 420 mg/m^2 by mouth once weekly, dose given 620 mg (11.5 mg/kg)): 556 ng·h/mL | AUC(0-inf) ([1]; 420 mg/m^2, Subject-9 (PNOC014-09), 15.6 kg, BSA 0.71 m^2, dose cohort 420 mg/m^2 by mouth once weekly, dose given 300 mg (19.2 mg/kg)): 889 ng·h/mL | patients who did not respond ([2]; NF1-associated pLGG, Phase 1): One | Best RANO Response (T1-Gad) ([2]; Subject-1 (PNOC014-01), BSA 0.86 m^2, dose cohort 280 mg/m^2 once weekly): CR (CR = −100%) | Best RANO Response (T1-Gad) ([2]; Subject-2 (PNOC014-02), BSA 1.0 m^2, dose cohort 280 mg/m^2 once weekly): PR (PR = −50% or more reduction from baseline) | Best RANO Response (T1-Gad) ([2]; Subject-3 (PNOC014-03), BSA 0.79 m^2, dose cohort 280 mg/m^2 once weekly): PR (PR = −50% or more reduction from baseline) | Best RANO Response (T1-Gad) ([2]; Subject-4 (PNOC014-04), BSA 1.71 m^2, dose cohort 350 mg/m^2 once weekly): PD (PD = ≥25% growth from nadir) | Best RANO Response (T1-Gad) ([2]; Subject-5 (PNOC014-05), BSA 1.71 m^2, dose cohort 350 mg/m^2 once weekly): SD (SD = between −50% and +25%) | Best RANO Response (T1-Gad) ([2]; Subject-6 (PNOC014-06), BSA 1.6 m^2, dose cohort 350 mg/m^2 once weekly): PD (PD = ≥25% growth from nadir) | Best RANO Response (T1-Gad) ([2]; Subject-7 (PNOC014-07), BSA 1.48 m^2, dose cohort 420 mg/m^2 once weekly): SD (SD = between −50% and +25%) | Best RANO Response (T1-Gad) ([2]; Subject-9 (PNOC014-09), BSA 0.71 m^2, dose cohort 420 mg/m^2 once weekly): PR (PR = −50% or more reduction from baseline) | patients achieving a complete response maintained throughout the dosing period of up to two years ([2]; nine pLGG patients, Phase 1): Two | patients achieving prolonged stable disease ([2]; nine pLGG patients, Phase 1): two | patients who did not achieve a response ([2]; nine pLGG patients, Phase 1): two | patients with a partial response ([2]; nine pLGG patients, Phase 1): Three | patients with shrinkage in lesion size in the first radiologic images after initiation of dosing ([2]; nine pLGG patients, Phase 1): six of nine | median time to response ([2]; nine pLGG patients, Phase 1, 280-420 mg/m^2 once weekly): 10.5 weeks | patients who did not respond [2, 3]: One | patients with complete or partial response per RANO criteria (≥50% decrease compared with baseline) [2, 3]: Five of the eight | patients with prolonged stable disease [2, 3]: Two of eight
